Test results as given in patent US7683057B2, “Kinase inhibitor compounds” (Tyrogenex, Inc., priority 2007, dated 2010).

System: AMPK (r)
Test: AMPK Biochemical Assay
Parameters: species or system rat
Details: compared with sunitinib
Experimental: The compounds are assayed for biochemical activity essentially according to the following procedure. In a final reaction volume of 25 μl, AMPK (r) (5-10 mU) is incubated with 32 mM HEPES pH7.4, 0.65 mM DTT, 0.012% Brij-35, 200 μM AMP, 200 μM AMARAASAAALARRR, 10 mM MgAcetate and [(γ-33P-ATP] (specific activity approx. 500 cpm/pmol, concentration as required). The reaction is initiated by the addition of the MgATP mix. After incubation for 40 minutes at room temperature, the reaction is stopped by the addition of 5 μl of a 3% phosphoric acid solution. 10 μl of the reaction is then spotted onto a P30 filtermat and washed three times for 5 minutes in 75 mM phosphoric acid and once in methanol prior to drying and scintillation counting.
With `Cc1[nH]c(/C=C2\C(=O)Nc3ccc(F)cc32)c(C)c1C(=O)N[C@H]1CC[C@@H](C(=O)N2CCOCC2)CC1` [Example 30, 5-[5-Fluoro-2-oxo-1,2-dihydro-indol-(3Z)-ylidenemethyl]-2,4-dimethyl-1H-pyrrole-3-carboxylic acid [4-(morpholine-4-carbonyl)-cyclohexyl]-amide] the AMPK inhibitory activities was “significantly less AMPK inhibitory activities than sunitinib”. For `Cc1[nH]c(/C=C2\C(=O)Nc3ccc(F)cc32)c(C)c1C(=O)N[C@H]1CCN(C(=O)C(=O)N(C)C)C1` [Example 29, 5-[5-Fluoro-2-oxo-1,2-dihydro-indol-(3Z)-ylidenemethyl]-2,4-dimethyl-1H-pyrrole-3-carboxylic acid ((S)-1-dimethylaminooxalyl-pyrrolidin-3-yl)-amide], the AMPK inhibitory activities was “significantly less AMPK inhibitory activities than sunitinib”. With `Cc1[nH]c(/C=C2\C(=O)Nc3ccc(F)cc32)c(C)c1C(=O)N[C@@H]1CCC[C@@H]1C(=O)N1CCCC1` [Example 36, 5-[5-Fluoro-2-oxo-1,2-dihydro-indol-(3Z)-ylidenemethyl]-2,4-dimethyl-1H-pyrrole-3-carboxylic acid [(1R,2S)-2-(pyrrolidine-1-carbonyl)-cyclopentyl]-amide] the AMPK inhibitory activities was “significantly less AMPK inhibitory activities than sunitinib”. With `Cc1[nH]c(/C=C2\C(=O)Nc3ccc(F)cc32)c(C)c1C(=O)N[C@@H]1CON(C2CCOCC2)C1=O` [Example 48, 5-[5-Fluoro-2-oxo-1,2-dihydro-indol-(3Z)-ylidenemethyl]-2,4-dimethyl-1H-pyrrole-3-carboxylic acid [(R)-3-oxo-2-(tetrahydro-pyran-4-yl)-isoxazolidin-4-yl]-amide] the AMPK inhibitory activities was “significantly less AMPK inhibitory activities than sunitinib”. In the case of `Cc1[nH]c(/C=C2\C(=O)Nc3ccc(F)cc32)c(C)c1C(=O)NC1CCN(C(=O)CO)CC1` [Example 22, 5-[5-Fluoro-2-oxo-1,2-dihydro-indol-(3Z)-ylidenemethyl]-2,4-dimethyl-1H-pyrrole-3-carboxylic acid [1-(2-hydroxy-acetyl)-piperidin-4-yl]-amide], the AMPK inhibitory activities is reported as “significantly less AMPK inhibitory activities than sunitinib”. With `Cc1[nH]c(/C=C2\C(=O)Nc3ccc(F)cc32)c(C)c1C(=O)N[C@H]1CC[C@@H](C(=O)N2CCCC2)CC1` [Example 31, 5-[5-Fluoro-2-oxo-1,2-dihydro-indol-(3Z)-ylidenemethyl]-2,4-dimethyl-1H-pyrrole-3-carboxylic acid [4-(pyrrolidine-1-carbonyl)-cyclohexyl]-amide] the AMPK inhibitory activities was “significantly less AMPK inhibitory activities than sunitinib”. With `Cc1[nH]c(/C=C2\C(=O)Nc3ccc(F)cc32)c(C)c1C(=O)N[C@H]1CCNC1=O` [Example 25, 5-[5-Fluoro-2-oxo-1,2-dihydro-indol-(3Z)-ylidenemethyl]-2,4-dimethyl-1H-pyrrole-3-carboxylic acid ((S)-2-oxo-pyrrolidin-3-yl)-amide] the AMPK inhibitory activities was “significantly less AMPK inhibitory activities than sunitinib”. With `Cc1[nH]c(/C=C2\C(=O)Nc3ccc(F)cc32)c(C)c1C(=O)NC1CS(=O)(=O)CC1O` (stereo not drawn) [Example 17, 5-[5-Fluoro-2-oxo-1,2-dihydro-indol-(3Z)-ylidenemethyl]-2,4-dimethyl-1H-pyrrole-3-carboxylic acid (4-hydroxy-1,1-dioxo-tetrahydro-thiophen-3-yl)-amide] the AMPK inhibitory activities was “significantly less AMPK inhibitory activities than sunitinib”.

System: AMPK
Test: not given
Details: proteomic study, literature; cited from earlier work
For `Cc1[nH]c(/C=C2\C(=O)Nc3ccccc32)c(C)c1CCC(=O)O` [SU6668], the “inhibition of AMPK” value is listed as “inhibits”.
